Measurements as given in US9487570B2, “Glucagon like peptide analogs, composition, and method of use” (BETTA PHARMACEUTICALS CO., LTD, priority 2010, dated 2016).

Tests used:
[1] = test system: cloned human GLP-1 receptor; assay: cAMP formation in a cell line expressing the cloned human GLP-1 receptor; conditions: 2 h at 37 °C, cAMP by scintillation proximity assay; read-out: Cell based cAMP ED50
DPP-IV = DPP-IV (Homo sapiens, UniProt P27487); assay: Stability to DPP-IV in vitro; conditions: isolated DPP-IV enzyme, pH 7.4
Method: DPP-IV (5 mU, 900 μL) was added, and the solutions were incubated at 37 ° C. At the indicated time points, 100 μL was removed from the reaction mixture, and reactions were terminated by the addition of 5 μL of 10% (v/v) TFA. Each sample was analyzed by MALDI-TOF MS and RP-HPLC as described.

[2] = from U.S. Pat. No. 5,118,666; cited from earlier work

Chain of DPP-IV (P27487 whole entry, species assumed): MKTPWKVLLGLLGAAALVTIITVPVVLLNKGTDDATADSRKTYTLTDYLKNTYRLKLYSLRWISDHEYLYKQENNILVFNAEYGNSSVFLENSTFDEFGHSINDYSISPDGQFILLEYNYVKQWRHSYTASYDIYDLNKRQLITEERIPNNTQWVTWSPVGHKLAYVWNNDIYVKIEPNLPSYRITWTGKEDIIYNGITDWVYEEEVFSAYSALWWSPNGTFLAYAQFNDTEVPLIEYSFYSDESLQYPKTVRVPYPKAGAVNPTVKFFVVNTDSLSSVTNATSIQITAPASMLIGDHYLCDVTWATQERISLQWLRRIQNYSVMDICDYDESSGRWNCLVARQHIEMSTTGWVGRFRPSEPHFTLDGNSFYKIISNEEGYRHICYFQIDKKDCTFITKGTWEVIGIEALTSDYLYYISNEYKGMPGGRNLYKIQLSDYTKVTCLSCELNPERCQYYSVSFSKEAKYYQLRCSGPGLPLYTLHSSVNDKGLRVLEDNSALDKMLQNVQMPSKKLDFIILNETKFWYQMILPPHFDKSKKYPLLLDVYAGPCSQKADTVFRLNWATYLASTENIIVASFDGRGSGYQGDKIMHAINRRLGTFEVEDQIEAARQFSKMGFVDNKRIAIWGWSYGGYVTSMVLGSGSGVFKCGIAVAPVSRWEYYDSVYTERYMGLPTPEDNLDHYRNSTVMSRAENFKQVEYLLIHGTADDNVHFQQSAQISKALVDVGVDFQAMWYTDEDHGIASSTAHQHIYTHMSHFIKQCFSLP

| Compound | EC50 [1] [nM] | remaining at 1 h, 0.5 nmol/L (DPP-IV) [%] | remaining at 24 h, 0.5 nmol/L (DPP-IV) [%] | biological half-life [2] [minutes] |
| --- | --- | --- | --- | --- |
| CC[C@H](C)[C@H](NC(=O)[C@H](Cc1ccccc1)NC(=O)[C@H](CCC(=O)O)NC(=O)[C@H](CCCCN)NC(=O)[C@H](C)NC(=O)[C@H](C)NC(=O)[C@H](CCC(N)=O)NC(=O)CNC(=O)[C@H](CCC(=O)O)NC(=O)[C@H](CC(C)C)NC(=O)[C@H](Cc1ccc(O)cc1)NC(=O)[C@H](CO)NC(=O)[C@H](CO)NC(=O)[C@@H](NC(=O)[C@H](CC(=O)O)NC(=O)[C@H](CO)NC(=O)[C@@H](NC(=O)[C@H](Cc1ccccc1)NC(=O)[C@@H](NC(=O)CNC(=O)[C@H](CCC(=O)O)NC(=O)[C@H](C)NC(=O)[C@@H](N)Cc1c[nH]cn1)[C@@H](C)O)[C@@H](C)O)C(C)C)C(=O)N[C@@H](C)C(=O)N[C@@H](Cc1c[nH]c2ccccc12)C(=O)N[C@@H](CC(C)C)C(=O)N[C@H](C(=O)N[C@@H](CCCCN)C(=O)NCC(=O)N[C@@H](CCCNC(=N)N)C(N)=O)C(C)C [GLP-1, reference compound] | 0.06 | – | – | – |
| CCCCCCCCCCCCCCCC(=O)N[C@@H](CCC(=O)NCCCC[C@H](NC(=O)[C@H](C)NC(=O)[C@H](C)NC(=O)[C@H](CCC(N)=O)NC(=O)CNC(=O)[C@H](CCC(=O)O)NC(=O)[C@H](CC(C)C)NC(=O)[C@H](Cc1ccc(O)cc1)NC(=O)[C@H](CO)NC(=O)[C@H](CO)NC(=O)[C@@H](NC(=O)[C@H](CC(=O)O)NC(=O)[C@H](CO)NC(=O)[C@@H](NC(=O)[C@H](Cc1ccccc1)NC(=O)[C@@H](NC(=O)CNC(=O)[C@@H](/C=C/[C@H](C)NC(=O)[C@@H](N)Cc1c[nH]cn1)CCC(=O)O)[C@@H](C)O)[C@@H](C)O)C(C)C)C(=O)N[C@@H](CCC(=O)O)C(=O)N[C@@H](Cc1ccccc1)C(=O)N[C@H](C(=O)N[C@@H](C)C(=O)N[C@@H](Cc1c[nH]c2ccccc12)C(=O)N[C@@H](CC(C)C)C(=O)N[C@H](C(=O)N[C@@H](CCCNC(=N)N)C(=O)NCC(=O)N[C@@H](CCCNC(=N)N)C(=O)NCC(=O)O)C(C)C)[C@@H](C)CC)C(=O)O [N-ε^26-[γ-L-glutamyl(N-α-hexadecanoyl)]-[Q-linker-a8-9,Arg34]GLP-1-(7-37)-peptide] | – | 98 | 98 | – |
| CCCCCCCCCCCCCCCC(=O)N[C@@H](CCC(=O)NCCCC[C@H](NC(=O)[C@H](C)NC(=O)[C@H](C)NC(=O)[C@H](CCC(N)=O)NC(=O)CNC(=O)[C@H](CCC(=O)O)NC(=O)[C@H](CC(C)C)NC(=O)[C@H](Cc1ccc(O)cc1)NC(=O)[C@H](CO)NC(=O)[C@H](CO)NC(=O)[C@@H](NC(=O)[C@H](CC(=O)O)NC(=O)[C@H](CO)NC(=O)[C@@H](NC(=O)[C@H](Cc1ccccc1)NC(=O)[C@@H](NC(=O)CNC(=O)[C@H](CCC(=O)O)N[C@@H]([C@H](C)NC(=O)[C@@H](N)Cc1c[nH]cn1)C(F)(F)F)[C@@H](C)O)[C@@H](C)O)C(C)C)C(=O)N[C@@H](CCC(=O)O)C(=O)N[C@@H](Cc1ccccc1)C(=O)N[C@H](C(=O)N[C@@H](C)C(=O)N[C@@H](Cc1c[nH]c2ccccc12)C(=O)N[C@@H](CC(C)C)C(=O)N[C@H](C(=O)N[C@@H](CCCNC(=N)N)C(=O)NCC(=O)N[C@@H](CCCNC(=N)N)C(=O)NCC(=O)O)C(C)C)[C@@H](C)CC)C(=O)O [N-ε^26-[γ-L-glutamyl(N-α-hexadecanoyl)]-[Q-linker-d8,Arg34]GLP-1-(7-37)-peptide] | – | 98 | 98 | – |
| GLP-1(7-37)OH | – | – | – | 3 to 5 |
